# Measured values: patent US20140039008A1, “METHODS FOR THE ADMINISTRATION OF ILOPERIDONE” (VANDA PHARMACEUTICALS, INC., priority 2004, published 2014)
# What was measured:
# HERG channel = HERG channel (Homo sapiens, UniProt Q12809); experiment: affinity for the HERG channel; assay type: binding
# lipophilicity = assay type: physicochemical; settings: compared to iloperidone
# [1] = interaction study: addition of CYP2D6 inhibitor fluoxetine, AUC; settings: addition of CYP2D6 inhibitor fluoxetine along with iloperidone
# [2] = Example 1: blood concentrations of P88 and P95 after iloperidone by CYP2D6 genotype, with and without inhibitor; assay type: in vivo, human; design: unit not given here; settings: at Tmax of P88, without inhibitor
# Text: The research leading to the present invention was designed to examine the effect of different doses of iloperidone relative to the effect of ziprasidone and quetiapine on QTc duration under carefully controlled conditions. To further evaluate the possible relationship between exposure to iloperidone and the comparators to QTc duration, reassessment after pharmacological inhibition of the principle metabolic pathways for each drug, under steady-state conditions, was also planned.
# Blood samples for pharmacogenetic analysis were collected at screening. Two polymorphisms previously associated with poor metabolizing status were genotyped in the CYP2D6 locus, and 251 genotypes were collected. The individual genotypes were studied for detection of association between genotype class and concentrations of iloperidone and its metabolites P88 and P95. The functional effect of the polymorphisms was also evaluated by analyzing the effect of the addition of the CYP2D6 inhibitor paroxetine on the concentrations of the parent drug and its metabolites.
# The addition of metabolic inhibitors in this study therefore allowed for an evaluation of the effect of increasing blood-concentration of iloperidone and/or its metabolites on QT duration. More specifically, this study allowed for an evaluation of the effect of iloperidone on QTc before and after the addition of the CYP2D6 inhibitor, paroxetine, as well as before and after the addition of the CYP3A4 inhibitor, ketoconazole.
# 128 individuals consented to the pharmacogenetic study. Blood samples were collected according to the pharmacogenetics protocol and after the consent of patients. The DNA was extracted from whole blood by Covance using the PUREGENE DNA isolation kit (D-50K).
# The 128 individuals that participated were a good representation of the total sample of 165 individuals that participated in the trial. 22 of 29 total were from the iloperidone 8 mg bid group, 30 of 34 were from the iloperidone 12 mg bid group, 22 of 31 from the 24 mg qd group, 3 of 5 of the risperidone group, 28 of 33 of the ziprazidone group, and 23 of 33 of the quetiapine group.
# The genotype effect of the two CYP2D6 polymorphisms on period 1 concentrations was evaluated using the following ANOVA model. Concentrations of iloperidone, P88, and P95 at Period 1, without inhibitor, at the time at which maximum blood concentration of the parent compound or metabolite was reached (Tmax) were used as the dependent variable, the genotypes of each polymorphism as classes and the treatment as a covariate. In order to adjust for treatment effects after the single dose of iloperidone, the 8 mg bid was coded as 8, the 12 mg bid as 12 and the 24 mg qd as 24.
# The function of these polymorphisms on the degree of inhibition of the CYP2D6 enzyme was calculated from the ratio of concentrations of P88 and P95 in period 2, after the addition of the inhibitor of CYP2D6. The concentrations of iloperidone and/or its metabolites (e.g., P88 and P95) may be determined in period 1 and/or period 2 by any known or later-developed method or device, including titration.
# In order to understand the functional significance of the two CYP2D6 polymorphisms on the activity of the enzyme, the association of the various genotypes with the relative concentrations of the metabolites P88 and P95 were examined. It is known that P88 is degraded by CYP2D6 and that CYP2D6 is involved in the synthesis of P95. The relative amounts of P88 and P95 would therefore be controlled by the activity of the CYP2D6 enzyme. The ratio of P88/P95 was calculated before inhibition in Period 1 and at the Tmax of the two metabolites, as well as the ratio of P88/P95 in Period 2 after the addition of the CYP2D6 inhibitor paroxetine. In individuals with the wild type enzyme the concentration of P88 is expected to increase in Period 2, while in the same period the concentration of P95 is expected to decline.
# HERG channel, sequence (Q12809 whole entry): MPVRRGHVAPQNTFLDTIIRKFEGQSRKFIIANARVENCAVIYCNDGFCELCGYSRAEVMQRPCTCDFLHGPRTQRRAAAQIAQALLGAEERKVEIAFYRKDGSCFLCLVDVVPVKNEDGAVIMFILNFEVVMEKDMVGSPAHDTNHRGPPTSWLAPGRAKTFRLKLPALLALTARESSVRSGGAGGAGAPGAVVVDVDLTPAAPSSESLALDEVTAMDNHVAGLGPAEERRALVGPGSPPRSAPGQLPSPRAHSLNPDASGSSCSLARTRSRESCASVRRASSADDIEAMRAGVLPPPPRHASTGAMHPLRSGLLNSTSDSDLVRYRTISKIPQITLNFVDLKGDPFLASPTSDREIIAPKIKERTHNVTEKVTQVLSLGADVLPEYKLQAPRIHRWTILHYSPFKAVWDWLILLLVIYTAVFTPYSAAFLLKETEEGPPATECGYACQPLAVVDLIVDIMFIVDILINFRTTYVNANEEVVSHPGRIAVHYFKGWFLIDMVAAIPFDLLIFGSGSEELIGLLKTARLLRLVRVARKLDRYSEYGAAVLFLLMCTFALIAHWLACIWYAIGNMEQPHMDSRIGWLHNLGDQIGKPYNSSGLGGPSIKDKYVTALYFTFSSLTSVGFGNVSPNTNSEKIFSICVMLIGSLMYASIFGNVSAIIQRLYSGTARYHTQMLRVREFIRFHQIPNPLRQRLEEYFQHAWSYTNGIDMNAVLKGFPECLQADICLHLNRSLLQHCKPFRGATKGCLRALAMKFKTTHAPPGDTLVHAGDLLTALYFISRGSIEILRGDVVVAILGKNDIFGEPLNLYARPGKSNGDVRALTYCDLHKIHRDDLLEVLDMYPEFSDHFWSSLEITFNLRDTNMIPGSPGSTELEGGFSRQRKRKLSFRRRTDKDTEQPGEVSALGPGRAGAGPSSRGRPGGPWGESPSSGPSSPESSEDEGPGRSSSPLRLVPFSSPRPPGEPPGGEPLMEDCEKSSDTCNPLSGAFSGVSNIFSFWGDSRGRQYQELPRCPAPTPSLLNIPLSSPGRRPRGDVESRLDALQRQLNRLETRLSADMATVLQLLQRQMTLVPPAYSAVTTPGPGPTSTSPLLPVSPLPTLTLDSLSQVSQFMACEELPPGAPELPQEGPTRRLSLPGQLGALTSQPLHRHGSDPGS
lipophilicity (lipophilicity),increase of the area under the curve (AUC) [1] [%],"P88 concentrations in Period 1, LSMeans ([2]; CYP2D6C100T CC)","P88 concentrations in Period 1, LSMeans ([2]; CYP2D6C100T CT)","P88 concentrations in Period 1, LSMeans ([2]; CYP2D6C100T TT)","P88 concentrations in Period 1, LSMeans ([2]; CYP2D6G1846A AA)","P88 concentrations in Period 1, LSMeans ([2]; CYP2D6G1846A AG)","P88 concentrations in Period 1, LSMeans ([2]; CYP2D6G1846A GG)",Compound,affinity for the HERG channel (HERG channel)
less lipophilic,,,,,,,,COc1cc(C(=O)O)ccc1OCCCN1CCC(c2noc3cc(F)ccc23)CC1 [P95],very low affinity
,119,21.03,33.16,51.00,62.70,31.40,21.03,COc1cc(C(C)O)ccc1OCCCN1CCC(c2noc3cc(F)ccc23)CC1 (stereo not drawn) [P88],
